According to patent US20220313620A1, “COMPOSITION FOR PREVENTING AND TREATING TAUOPATHIES” (SERVICIO ANDALUZ DE SALUD, priority 2019, published 2022):

System: Pyruvate Kinase Liver/RBC (Pklr)
Experiment: Liver pyruvate kinase gene expression (qPCR) after acute oral gavage
Assay type: in vivo
Settings: oral 100 mg/kg, adult male Wistar rats, FIG. 2D
Method: After 18 hours of fasting, D-Pinitol dissolved in water was administered acutely by gavage (100 mg/kg in a first study, and 500 mg/kg in a subsequent study). After administration, the animals were sacrificed in groups at different times (being time 0 the administration of D-Pinitol). For the first study (100 mg/kg), groups of animals were sacrificed at times: 10, 20, 30, 60, 120, 240 and 360 minutes after administration; for the second study (500 mg/kg), animals were sacrificed at times: 60, 120 and 240 minutes after administration. As a control group, a group was administered only with water (by gavage). […]
Total RNA was extracted from tissue portions of liver (100-300 mg) using the Trizol® method according to the manufacturer's instructions (GIBCO BRL Life Technologies). […] Total RNA was quantified using a spectrophotometer (Nanodrop 1000 Spectrophotometer, Thermo Scientific) to ensure A260/280 ratios of 1.8 to 2.0. […]
Real-time qPCR was performed following the criteria of the MIQE guidelines (Bustin, S. A. et al. The MIQE guidelines: minimum information for publication of quantitative real-time PCR experiments. Clin Chem. 55,611-622 (2009)). […] For all reference and target gene studies, two independent biologic samples of each experimental condition were evaluated in technical duplicates. […]

## COC1[C@@H](O)[C@@H](O)C(O)[C@H](O)[C@H]1O (stereo partly drawn) [DPIN, (1S,2S,4S,5R)-6-methoxycyclohexane-1,2,3,4,5-pentol]
  expression of Pyruvate Kinase: Inhibition
